≈ marks a conversion by molar mass, not a printed value. Where two headings read alike, the source gives them in different places. Peptide text beside a SMILES is read from it.
What was measured:
[1] = system: P. aeruginosa (KCTC 1637)
Experimental: (§1) The bacterial cells were grown overnight for 18 h at 37 °C in 10 mL of Mueller Hinton broth (MHB). The 10 μL of this culture was inoculated into 10 mL of fresh MHB and incubated for an additional 3 h at 37 °C to obtain mid-logarithmic phase organisms. Aliquots (100 μL) of bacterial cell suspension at 4 × 10^6 CFU/mL in 1% peptone were added to 100 μL of the sample solutions (serial 2-fold dilutions in 1% peptone). […] The MIC values were determined after 18 h of incubation.

E. coli (KCTC 1682) = system: E. coli (KCTC 1682)
Experimental: as §1

[2] = system: Staphylococcus epidermidis (KCTC 1917)
Experimental: as §1

[3] = system: Staphylococcus aureus (KCTC 1621)
Experimental: as §1

[4] = Analytical RP-HPLC retention time; assay type: physicochemical; details: C18 4.6 mm × 250 mm, 0.05% aq. TFA (A) / 0.05% TFA in CH3CN (B), 5% to 95% B in 30 min, 1.0 mL/min, 25 °C, 280 nm, method A of the Supplementary Material
Experimental: As described previously, all reactions were performed under argon atmosphere in flame-dried glassware using dry solvents unless otherwise noted. Anhydrous organic solvents of purity greater than 99.9% were purchased from Aldrich and used directly in the reaction. All reagents and some of the starting materials were purchased from commercial chemical suppliers, including Sigma-Aldrich, TCI, and Across Organics and used as received. Analytical thin-layer chromatography (TLC) was performed on Merck aluminum sheets with silica gel 60 F254 using 0.25 mm plates, and was visualized by ultraviolet light, staining with KMnO4 and ninhydrin. Column chromatography purification was performed on Merck silica gel 60 (70–230 mesh or 230–400 mesh). Bruker DRX-400 and DRX-500 NMR spectrometer were used for recording ^1H and ^13C NMR spectra. NMR chemical shifts (δ) are denoted in parts per million (ppm), and coupling constants (J) are given in hertz (Hz). MALDI-TOF mass was recorded using Shimadzu mass spectrometer. The crude peptidomimetics and peptides were purified by reverse-phase high-performance liquid chromatography (RP-HPLC) on Agilent HPLC system equipped with a C18 semi-preparative column (250 mm × 22 mm, 10 μm) using 0.05% aq. trifluoroacetic acid (TFA) (eluent A) and 0.05% TFA in CH3CN (eluent B) were used with a flow rate of 5.0 mL/min at 25 °C, under wavelength 280 nm. Moreover, the purity of the peptide judged to be ≥ 95% pure by analytical HPLC equipped with a C18 column (4.6 mm× 250 mm, 10 μm). Two different linear gradients of 0.05% aq. TFA (eluent A) and 0.05% TFA in CH3CN (eluent B) (gradient method, 5% of eluent B to 95% of Eluent B in 30 min; injection volume, 10 µL; concentration 10 µmol) were used with a flow rate of 1.0 mL/min at 25 °C, under wavelength 280 nm.

[5] = system: trypsin (read-out E. coli KCTC 1682); assay type: in vitro ADME
Experimental: (§2) Digestion of the BJK-4 and melittin by trypsin was carried out using 100 μg/mL peptide and 0.4 μg/mL trypsin in PBS, at 37 °C for 2 h. The reaction solution (50 μL) was added to 150 μL of a bacterial suspension (2 × 10^6 CFU/mL in Mueller-Hinton broth). After incubation at 37 °C for 18 h, the bacterial growth inhibition was determined by measuring absorbance at 600 nm with a microplate ELISA reader (Bio-Tek; EL 800).

[6] = system: trypsin (read-out S. aureus KCTC 1621); assay type: in vitro ADME
Experimental: as §2

[7] = Gram-negative, serial 2-fold dilutions in 1% peptone, 1 to […], 18 h incubation, lowest concentration causing 100% inhibition of growth (no visible turbidity)
[8] = Gram-positive, serial 2-fold dilutions in 1% peptone, 1 to […], 18 h incubation, lowest concentration causing 100% inhibition of growth (no visible turbidity)

Row | Structure (SMILES) | MIC, P. aeruginosa (KCTC 1637) ([1]; KCTC 1637, 18 h) [µg/mL] | MIC, E. coli (KCTC 1682) (E. coli (KCTC 1682); KCTC 1682, 18 h) [µg/mL] | MIC, Staphylococcus epidermidis (KCTC 1917) ([2]; KCTC 1917, 18 h) [µg/mL] | MIC, Staphylococcus aureus (KCTC 1621) ([3]; KCTC 1621, 18 h) [µg/mL] | Rt, HPLC retention time [4] [min] | Antimicrobial activity against E. coli after trypsin treatment ([5]; 100 μg/mL peptide, 0.4 μg/mL trypsin in PBS, 37 °C, 2 h, then E. coli KCTC 1682 in Mueller-Hinton broth, 18 h at 37 °C, absorbance 600 nm) | Antimicrobial activity against S. aureus after trypsin treatment ([6]; 100 μg/mL peptide, 0.4 μg/mL trypsin in PBS, 37 °C, 2 h, then S. aureus KCTC 1621 in Mueller-Hinton broth, 18 h at 37 °C, absorbance 600 nm) | MIC, P. aeruginosa (KCTC 1637) [1, 7] [µg/mL] | MIC, E. coli (KCTC 1682) (E. coli (KCTC 1682); [7]) [µg/mL] | MIC, Staphylococcus epidermidis (KCTC 1917) [2, 8] [µg/mL] | MIC, Staphylococcus aureus (KCTC 1621) [3, 8] [µg/mL] | Antimicrobial activity against E. coli after trypsin treatment [5] | Antimicrobial activity against S. aureus after trypsin treatment [6]
1 | CC[C@H](C)[C@H](NC(=O)CN)C(=O)NCC(=O)N[C@@H](C)C(=O)N[C@H](C(=O)N[C@@H](CC(C)C)C(=O)N[C@@H](CCCCN)C(=O)N[C@H](C(=O)N[C@@H](CC(C)C)C(=O)N[C@H](C(=O)N[C@H](C(=O)NCC(=O)N[C@@H](CC(C)C)C(=O)N1CCC[C@H]1C(=O)N[C@@H](C)C(=O)N[C@@H](CC(C)C)C(=O)N[C@H](C(=O)N[C@@H](CO)C(=O)N[C@@H](Cc1c[nH]c2ccccc12)C(=O)N[C@H](C(=O)N[C@@H](CCCCN)C(=O)N[C@@H](CCCNC(=N)N)C(=O)N[C@@H](CCCCN)C(=O)N[C@@H](CCCNC(=N)N)C(=O)N[C@@H](CCC(N)=O)C(=O)N[C@@H](CCC(N)=O)C(N)=O)[C@@H](C)CC)[C@@H](C)CC)[C@@H](C)O)[C@@H](C)O)C(C)C)C(C)C [melittin, reference compound] | – | – | – | – | – | completely abolished | completely abolished | – | – | – | – | – | –
2 | CC(=O)N[C@@H](CCCCN)C(=O)N[C@@H](Cc1c[nH]c2ccccc12)C(=O)N[C@@H](CCCCN)C(=O)N[C@@H](Cc1c[nH]c2ccccc12)C(N)=O [BJK-10] (Ac-KWKW-NH2) | – | – | – | – | 17.9 | – | – | >128 | >128 | >128 | >128 | – | –
3 | CC(=O)NCCNc1nc(NCC(=O)NCCNc2nc(NCC(=O)NCCNc3nc(NCC(N)=O)nc(N(CCCN)CCCN)n3)nc(N(Cc3ccccc3)Cc3ccccc3)n2)nc(N(CCCN)CCCN)n1 [BJK-4] | 16 (≈ 14.6 µM) | 16 (≈ 14.6 µM) | 16 (≈ 14.6 µM) | 16 (≈ 14.6 µM) | – | – | – | – | – | – | – | nearly preserved | nearly preserved
4 | CC(=O)NCCNc1nc(NCC(=O)NCCNc2nc(NCC(=O)NCCNc3nc(NCC(=O)NCCNc4nc(NCC(N)=O)nc(N(Cc5ccccc5)Cc5ccccc5)n4)nc(N(CCCN)CCCN)n3)nc(N(Cc3ccccc3)Cc3ccccc3)n2)nc(N(CCCN)CCCN)n1 [BJK-6] | – | – | – | – | – | – | – | 16 (≈ 10.8 µM) | 16 (≈ 10.8 µM) | 16 (≈ 10.8 µM) | 16 (≈ 10.8 µM) | – | –
5 | CC(=O)NCCNc1nc(NCC(N)=O)nc(N(Cc2ccccc2)Cc2ccccc2)n1 [BJK-2] | >128 | >128 | >128 | >128 | 21.8 | – | – | – | – | – | – | – | –
6 | CC(=O)NCCNc1nc(NCC(=O)NCCNc2nc(NCC(N)=O)nc(N(Cc3ccccc3)Cc3ccccc3)n2)nc(N(CCCN)CCCN)n1 [BJK-3] | 32 (≈ 41.5 µM) | 64 (≈ 82.9 µM) | 32 (≈ 41.5 µM) | 32 (≈ 41.5 µM) | – | – | – | – | – | – | – | – | –
7 | CC(=O)NCCNc1nc(NCC(=O)NCCNc2nc(NCC(=O)NCCNc3nc(NCC(N)=O)nc(N(Cc4ccccc4)Cc4ccccc4)n3)nc(N(CCCN)CCCN)n2)nc(N(Cc2ccccc2)Cc2ccccc2)n1 [BJK-5] | 32 (≈ 27.6 µM) | 128 (≈ 110 µM) | 64 (≈ 55.1 µM) | 64 (≈ 55.1 µM) | 21.1 | – | – | – | – | – | – | – | –

Second part, led by results:

Row | MIC, P. aeruginosa (KCTC 1637) ([1]; KCTC 1637, 18 h) [µg/mL] | MIC, E. coli (KCTC 1682) (E. coli (KCTC 1682); KCTC 1682, 18 h) [µg/mL] | MIC, Staphylococcus epidermidis (KCTC 1917) ([2]; KCTC 1917, 18 h) [µg/mL] | MIC, Staphylococcus aureus (KCTC 1621) ([3]; KCTC 1621, 18 h) [µg/mL] | Rt, HPLC retention time [4] [min] | Structure (SMILES) | Antimicrobial activity against E. coli after trypsin treatment ([5]; 100 μg/mL peptide, 0.4 μg/mL trypsin in PBS, 37 °C, 2 h, then E. coli KCTC 1682 in Mueller-Hinton broth, 18 h at 37 °C, absorbance 600 nm) | Antimicrobial activity against S. aureus after trypsin treatment ([6]; 100 μg/mL peptide, 0.4 μg/mL trypsin in PBS, 37 °C, 2 h, then S. aureus KCTC 1621 in Mueller-Hinton broth, 18 h at 37 °C, absorbance 600 nm) | MIC, P. aeruginosa (KCTC 1637) [1, 7] [µg/mL] | MIC, E. coli (KCTC 1682) (E. coli (KCTC 1682); [7]) [µg/mL] | MIC, Staphylococcus epidermidis (KCTC 1917) [2, 8] [µg/mL] | MIC, Staphylococcus aureus (KCTC 1621) [3, 8] [µg/mL] | Antimicrobial activity against E. coli after trypsin treatment [5] | Antimicrobial activity against S. aureus after trypsin treatment [6]
8 | >128 | >128 | >128 | >128 | 19.6 | CC(=O)N[C@@H](Cc1c[nH]c2ccccc12)C(=O)N[C@@H](CCCCN)C(=O)N[C@@H](Cc1c[nH]c2ccccc12)C(N)=O [BJK-9] (Ac-Trp-Lys-Trp-NH2) | – | – | – | – | – | – | – | –
9 | 128 (≈ 343 µM) | 128 (≈ 343 µM) | >128 | >128 | 15.4 | CC(=O)N[C@@H](CCCCN)C(=O)N[C@@H](Cc1c[nH]c2ccccc12)C(N)=O [BJK-7] (Ac-Lys-Trp-NH2) | – | – | – | – | – | – | – | –
10 | 128 (≈ 255 µM) | 64 (≈ 128 µM) | >128 | >128 | 14.2 | CC(=O)N[C@@H](CCCCN)C(=O)N[C@@H](Cc1c[nH]c2ccccc12)C(=O)N[C@@H](CCCCN)C(N)=O [BJK-8] (Ac-Lys-Trp-Lys-NH2) | – | – | – | – | – | – | – | –
11 | 128 (≈ 335 µM) | 128 (≈ 335 µM) | >128 | >128 | 8.8 | CC(=O)NCCNc1nc(NCC(N)=O)nc(N(CCCN)CCCN)n1 [BJK-1] | – | – | – | – | – | – | – | –

Source: paper PMC7279249, “Synthesis of Fmoc-Triazine Amino Acids and Its Application in the Synthesis of Short Antibacterial Peptidomimetics” (International Journal of Molecular Sciences, 2020)
